According to a melting point compilation (Tetko et al.):

Structure (SMILES) | melting point
C=C1C(C)C2C(Cc3ccccc3)NC(=O)C23OC(=O)C=CC(O)CCCC(C)CC=CC3C1O (stereo not drawn) | 218 to 223 °C
O=C1C=CC2=CC(=O)C=CC(=C1)C2 | 122 °C
CN=C=O | -45 °C
O=C(O)c1cc([N+](=O)[O-])c(Cl)c([N+](=O)[O-])c1 | 161 °C
NC(=O)c1ccc2ccccc2c1 | 195 °C
CN(CC(=O)O)C(=O)OC(C)(C)C | 91 °C
c1ccc(C(c2ccccc2)c2ccccn2)cc1 | 54 to 61 °C
O=[N+]([O-])c1c(O)c(Cl)cc(Cl)c1Cl | 92.5 °C
C[C@]12CCC(=O)C=C1CC[C@@H]1[C@@H]2CC[C@]2(C)C(=O)CC[C@@]12O | 256 to 260 °C
CCCCC(=O)CCCC | -3.8 °C
CC(C)(C)OC(=O)N1CCN(c2ccc(C=O)cn2)CC1 | 126 to 128 °C
Brc1ccc2nccnc2c1 | 54 to 55 °C
COC(=O)c1sccc1-n1cccc1 | 61 °C
N=C(N)N[C@@H](Cc1ccccc1)C(=O)O | 250 to 253 °C
Cn1c(S)nnc1CC#N | 188 to 190 °C
N#Cc1ccc2c(c1)OCCO2 | 104 to 106 °C
O=c1[nH]c2c(c(=O)n1C1CCCCC1)CCC2 | 316 °C
Clc1cc(N2CCCCC2)ncn1 | 79 °C
N#Cc1c(N2CCCC2)nc(N)c2c(-c3ccccc3)cc(-c3ccccc3)nc12 | 236 °C

Structure (SMILES) | melting point
CNc1ccc2cc(OC)[nH]c2c1 | 165 °C
CN1C2CCC1CC(OC(=O)C(O)c1ccccc1)C2 (stereo not drawn) | 99.5 °C
O=C(O)C(F)(F)C(F)(F)C(F)(F)C(F)(F)C(F)(F)F | 10 °C
O=C1NC(=O)C(=Cc2cccc(C=C3C(=O)NC(=O)NC3=O)c2)C(=O)N1 | 340 °C
Cc1ccc(S(=O)(=O)OC2CCC3C4CCC5CC(=O)CCC5(C)C4CCC23C)cc1 (stereo not drawn) | 179 to 180 °C
Cc1c(C(=O)O)cc(-c2ccccc2)n1CCCN1CCOCC1 | 172 to 177 °C
O=C(C=CC1=NC=NC1)NCCc1cnc[nH]1 | 240 to 241 °C
NC(=S)c1ccccc1 | 116 °C
CCOC(=O)c1cnc(SC)nc1Cl | 62 °C
ClC1=C(Cl)C2(Cl)C3C(c4ccccc4C4C3C3(Cl)C(Cl)=C(Cl)C4(Cl)C3(Cl)Cl)C1(Cl)C2(Cl)Cl (stereo not drawn) | 217 to 220 °C
Cc1nn(-c2ccccc2)c(C)c1C=O | 125 to 128 °C
CCOC(=O)C(C)OC(=O)c1cc(Oc2ccc(C(F)(F)F)cc2Cl)ccc1[N+](=O)[O-] (stereo not drawn) | 45 °C
CC1COC(Cn2cncn2)(c2ccc(Oc3ccc(Cl)cc3)cc2Cl)O1 (stereo not drawn) | 76 °C
NC(=O)c1ccc(F)cc1Cl | 152 to 154 °C
O=C(O)c1ccccc1-n1ccnc1 | 198 to 200 °C
COc1ccccc1C1(C)CCc2oc3ccc(Cl)cc3c2-c2oc(C)cc21 (stereo not drawn) | 197 to 198 °C
Nc1ccc(Cc2ccc(N)c(Cl)c2)cc1Cl | 110 °C
O=CC=O | 15 °C
Nc1ccc(N=Nc2ccc(S(N)(=O)=O)cc2)c(N)c1 | 250 °C

More lines, now with the values ahead:

melting point | Structure (SMILES)
93 °C | Cc1cc2c(o1)-c1c(oc3ccc(Cl)cc13)CCC2C (stereo not drawn)
134 to 136 °C | O=C1NC(=O)C2CC(c3ccccc3)CCC12 (stereo not drawn)
143 to 149 °C | O=C1c2ccccc2-c2ccc(Br)cc21
120 °C | O=C1c2ccccc2C(=O)C1c1ccc(F)cc1
55 °C | FC(F)(F)Sc1ccc(CBr)cc1
174 °C | N#C/C(=C/c1ccco1)c1nc(-c2ccc(Br)cc2)cs1
87.5 °C | Brc1cccc(Br)c1Br
66 °C | Cc1cc(C)c2cnn(-c3ccccc3)c2n1
81 °C | CCc1ccc(C(c2ccc(C(c3ccc(CC)o3)c3ccc(CC)o3)cc2)c2ccc(CC)o2)o1
204 to 205 °C | COC(=O)c1cnc(SCC(=O)NC(=O)Nc2ccccc2)n1C
163 °C | CC12CCC3C(CCC4CC(=O)CCC43C)C1CC(=O)C2 (stereo not drawn)
84 to 90 °C | ON=C(CBr)c1ccc(F)cc1
144 °C | Cc1c(-c2ccccc2)oc(-c2ccccc2)c(C)c1=O
131 °C | CCCCNC(=O)NS(=O)(=O)c1ccccc1
220 to 224 °C | CO[C@@H](C)[C@H](N)C(=O)O
-7.5 °C | CCCCCCCC(C)=O
103 to 106 °C | COc1cc2c(cc1OC)C(C)=NCC2
250 °C | N#Cc1cnc(Br)nc1N
-87.7 °C | CC(C)[Si](Cl)(Cl)Cl
48 °C | CC#CC1(O)CCCCC1
18.5 °C | CCCCCCCCCCCCCCC(=O)OC
114 °C | C#C[C@@]1(OC)CC[C@H]2[C@@H]3CCc4cc(OC)ccc4[C@H]3CC[C@@]21C
241 to 242 °C | Cc1cc(C(=O)O)n[nH]1
124 °C | CCC(Oc1c(I)cc(I)cc1I)C(=O)O (stereo not drawn)
209 to 210 °C | CCOC(=O)/C=C/c1ccc2ccc(=O)[nH]c2c1
44 °C | O=Cc1cc(I)ccc1F
40 °C | CC(C)(C)c1ccc(C(=O)c2ccccc2)cc1
137 to 142 °C | O=C(CO)c1ccc(Br)cc1

melting point | Structure (SMILES)
209 to 210 °C | COc1cc2nnc(/C=C/C(C)=O)c(-c3ccc(C)o3)c2cc1OC
170 °C | CS(=O)(=O)c1ccc2c(c1)N(CCCN1CCC(C(N)=O)CC1)c1ccccc1S2
232 °C | CCOC(=O)NC(=O)Nn1c(S)nnc1C(F)(F)F
148 °C | CC1(C)CC(=O)C(=NNc2ccccc2)C(=O)C1
63 °C | COc1cc(F)c(Br)cc1F
64 °C | N#Cc1ccc(F)cc1Cl
106 °C | CC1CCC(C(C)C)C(OC(=O)OC2CC(C)CCC2C(C)C)C1 (stereo not drawn)
24 °C | O=C=Nc1c(F)cccc1F
256 to 257 °C | Cc1nc([N+](=O)[O-])c(Br)[nH]1
213 to 214 °C | O=[N+]([O-])c1ccc2[nH]c3c(c2c1)CCN(Cc1ccccc1)C3
84 °C | Cc1nc2cc(C)c(C)cc2s1
276 °C | O=C(Nc1cccc2c1c(S(=O)(=O)O)cc1oc(-c3ccccc3)nc12)c1ccccc1
111 to 113 °C | COc1ccc(N=C(S)SC)cc1
93 to 94 °C | c1ccc(-c2nsc(N3CCNCC3)n2)cc1
100 to 105 °C | CC(c1ccccc1)C(NC(=O)OC(C)(C)C)C(=O)O (stereo not drawn)
162 °C | O=C(Nc1ccc(Cl)c(Cl)c1)c1cc(Cl)cc(Cl)c1O
144 °C | O=C1c2ccccc2C(=O)N1CO
13 °C | N#CC1CC2C=CC1C2 (stereo not drawn)
69 °C | O=C1C=CC(=O)N1Cc1ccccc1
159 °C | Clc1c(Cl)c(Cl)c2c(c1Cl)OC1Cc3ccccc3C1O2 (stereo not drawn)
55 to 57 °C | COc1c(OC)c(=O)c1=O
51 °C | COc1c(C)cc2c(c1C)CC2=O
232 to 233 °C | C1OC2COCOC2C2OCOCC2O1 (stereo not drawn)
54 to 57 °C | Cc1nc2cc(Cl)ccc2o1
270 °C | NCCCS(=O)(=O)O
160 to 162 °C | O=C(O)c1cccc(-c2nccs2)c1
71 °C | Cc1ccc(C(O)c2ccc(C)cc2)cc1
